In US20230391729A1, “SUCCINATE SALTS OF N-(3-(4-(3-(DIISOBUTYLAMINO)PROPYL)PIPERAZIN-1-YL)PROPYL)-1H-BENZO[D]IMIDAZOL-2-AMINE, PREPARATION THEREOF AND USE OF THE SAME” (ALZPROTECT, priority 2020, published 2023):

Legend:
[1] = system: α-syn aggregation; assay: α-synuclein aggregation in TH(+) neurons after MPP+ injury; assay type: cell-based, rat; details: MPP+ 4 μM 48 h
Protocol: Rat dopaminergic neurons were cultured as described by Visanji et al. in FASEB J. 2008, 22(7): 2488-2497 and Callizot et al., in Plos One 2019: https://doi.org/10.1371/journal.pone.0215277. Briefly, pregnant female rat (Wistar) of 15 days of gestation were killed using a deep anesthesia with CO2 chamber and a cervical dislocation. The midbrains obtained from 15-day-old rat embryos (Janvier, France) were dissected under a microscope. The embryonic midbrains were removed and placed in ice-cold medium of Leibovitz (L15) containing 2% of Penicillin-Streptomycin (PS) and 1% of BSA. The ventral portion of the mesencephalic flexure, a region of the developing brain rich in dopaminergic neurons, were used for the cell preparations. The midbrains were dissociated by trypsinization for 20 min at 37° C. (solution at a final concentration of 0.05% trypsin and 0.02% EDTA). The reaction was stopped by the addition of DMEM containing DNAase I grade II (0.5 mg/mL) and 10% of FCS. […] Viable cells were counted in a Neubauer cytometer using the trypan blue exclusion test. […]
(§1) The following read-outs were investigated: • neuron survival: total number of TH neurons (TH staining), • neurite network: total length of neurite network of TH positive neurons (in μm) • α-syn aggregation (area of overlapping between TH and α-syn staining in μm^2) […]

[2] = system: dopaminergic (TH positive) neurons; assay: Survival and neurite network of TH(+) mesencephalic neurons after rotenone injury; assay type: cell-based, rat; details: rotenone 10 nM 24 h
Protocol: Rat dopaminergic neurons were cultured as described by Visanji et al. in FASEB J. 2008, 22(7): 2488-2497 and Callizot et al., in Plos One 2019: https://doi.org/10.1371/journal.pone.0215277. Briefly, pregnant female rat (Wistar) of 15 days of gestation were killed using a deep anesthesia with CO2 chamber and a cervical dislocation. The midbrains obtained from 15-day-old rat embryos (Janvier, France) were dissected under a microscope. The embryonic midbrains were removed and placed in ice-cold medium of Leibovitz (L15) containing 2% of Penicillin-Streptomycin (PS) and 1% of BSA. The ventral portion of the mesencephalic flexure, a region of the developing brain rich in dopaminergic neurons, were used for the cell preparations. The midbrains were dissociated by trypsinization for 20 min at 37° C. (solution at a final concentration of 0.05% trypsin and 0.02% EDTA). The reaction was stopped by the addition of DMEM containing DNAase I grade II (0.5 mg/mL) and 10% of FCS. Cells were then mechanically dissociated by 3 passages through a 10 ml pipette. Cells were then centrifuged at 180×g for 10 min at +4° C. on a layer of BSA (3.5%) in L15 medium. The supernatant was discarded and the cell pellets were re-suspended in a defined culture medium consisting of Neurobasal supplemented with B27 (2%), L-glutamine (2 mM) and 2% of PS solution and 10 ng/mL of BDNF and 1 ng/mL of Glial-Derived Neurotrophic Factor (GDNF). Viable cells were counted in a Neubauer cytometer using the trypan blue exclusion test. The cells were seeded at a density of 40,000 cells/well in 96 well-plates (pre-coated with poly-L-lysine) and maintained in a humidified incubator at 37° C. in 5% CO2/95% air atmosphere. Half of the medium was changed every 2 days with fresh medium. […]
as §1

“N-(3-(4-(3-(diisobutylamino)propyl)piperazin-1-yl)propyl)-1H-benzo[d]imidazol-2-amine sesqui-succinate salt [sesqui-succinate salt Form 1]” was tested, and the α-syn aggregation ([1]; coincubation, 50 or 100 nM) was “significantly reduced”, the α-syn aggregation ([1]; pre-incubation, all tested concentrations) was “significantly reduced” and the “neuron survival: total number of TH neurons” value ([2]; administered directly with rotenone, all concentrations) was “significantly increased neuronal survival”. For the same substance, the “neurite network of TH positive neurons” value ([2]; pre and co-treatment, 10 to 100 nM) was “significantly improved” and the “neuron survival: total number of TH neurons” value ([2]; pre-incubated, 10 and 50 nM) was “significantly neuroprotective”.
